Measurements reported in patent US20230303539A1, “IMMUNOREGULATORY COMPOUND AND ANTITUMOR APPLICATION THEREOF” (SHANGHAITECH UNIVERSITY, priority 2020, published 2023).

Legend:
[1] = tested on: human diffuse large B-cell lymphoma cell line WSU-DLCL2; experiment: Cell proliferation inhibition (CCK-8) in WSU-DLCL2; type: cell-based; details: WSUDLCL2, WSU-DLCL2 cells, 72 h treatment, read-out: IC50 (half inhibitory concentration) in tumor cells, WSU-DLCL2
Excerpt: (§1) The tested cell lines used were: Multiple myeloma cell line MM.1S, human Burkitt's lymphoma cell line Daudi, human acute promyelocytic leukemia cell line NB4, human mantle cell lymphoma cell line JEKO-1, human B-cell lymphoma cell line SU-DHL-4, human mantle cell lymphoma cell line Mino, human diffuse large B-cell lymphoma cell line TMD8, human B-cell lymphoma cell line DOHH2, PBMCs cell and human diffuse large B-cell lymphoma cell line WSU-DLCL2, which were purchased from ATCC (American type Culture Collection) or Cell Bank/Stem Cell Bank, Chinese Academy of Sciences. The medium was RPMI1640 supplemented with 10% FBS (fetal calf serum) and 1% Penicillin-Streptomycin. […]
(§2) IC50 values of the compounds of the present disclosure (including the compounds in Table 1 and compounds of examples 1-23) were measured using Cell Titer Blue, Cell Titer GLO, or WST reagent from Promega Company. […] After the cells were treated with the compounds of the present disclosure to be tested for 72 h, cell viability was determined after adding the cell viability detection kit listed above according to the reagent operating instructions. […] The growth inhibition of the compounds of the present disclosure on cells was plotted by Prism Graphpad software, and the IC50 values of the compounds of the present disclosure were calculated therefrom. […]

[2] = tested on: human B-cell lymphoma cell line SU-DHL-4; experiment: Cell proliferation inhibition (CCK-8) in SU-DHL-4; type: cell-based; details: SU-DHL-4 cells, 72 h treatment, FIG. 3
Excerpt: as §1, §2

[3] = tested on: multiple myeloma cancer cells MM.1S; experiment: Cell proliferation inhibition (cell viability, CCK-8) in MM.1S; type: cell-based; details: Homo sapiens, MM1.S; MM.1S cells, 72 h treatment, CCK-8 cell viability
Excerpt: (§3) The tested cell lines used were: Multiple myeloma cell line MM.1S, human Burkitt's lymphoma cell line Daudi, human acute promyelocytic leukemia cell line NB4, human mantle cell lymphoma cell line JEKO-1, human B-cell lymphoma cell line SU-DHL-4, human mantle cell lymphoma cell line Mino, human diffuse large B-cell lymphoma cell line TMD8, human B-cell lymphoma cell line DOHH2, PBMCs cell and human diffuse large B-cell lymphoma cell line WSU-DLCL2, which were purchased from ATCC (American type Culture Collection) or Cell Bank/Stem Cell Bank, Chinese Academy of Sciences. The medium was RPMI1640 supplemented with 10% FBS (fetal calf serum) and 1% Penicillin-Streptomycin. The cells used were identified as correct cells by STR cells, and were negative for mycoplasma through routine inspections.
(§4) IC50 values of the compounds of the present disclosure (including the compounds in Table 1 and compounds of examples 1-23) were measured using Cell Titer Blue, Cell Titer GLO, or WST reagent from Promega Company. Assay details are as follows: Cells were seeded in 100 μL RPMI1640 medium containing serum at a density of 15,000 cells/well. After 24 h, the inoculated cells were treated with diluted commercial inhibitor and the compounds of the present disclosure to be tested after serial dilution. After the cells were treated with the compounds of the present disclosure to be tested for 72 h, cell viability was determined after adding the cell viability detection kit listed above according to the reagent operating instructions. The negative control was DMSO, and the positive control was a commercial inhibitor, both of which were used to treat the cells through the same method as that of the compounds of the present disclosure. The growth inhibition of the compounds of the present disclosure on cells was plotted by Prism Graphpad software, and the IC50 values of the compounds of the present disclosure were calculated therefrom.
(§5) We tested the activities of the compounds of the present invention (including the compounds in Table 1 and Examples 1-23 compounds) in multiple myeloma cancer cells MM.1S cell and B lymphoma cells Daudi through a dose-dependent manner. The cells were treated with the compounds of the present invention at 10 different successively decreasing concentrations (starting at the highest concentration of […]; 5-fold serial dilutions) for 72 h, and then the cell viability determination was performed in accordance with CCK-8 reagent operating instructions.

[4] = tested on: human mantle cell lymphoma cell line Mino; experiment: Cell proliferation inhibition (CCK-8) in Mino; type: cell-based; details: MINO cells, 72 h treatment, read-out: IC50 (half inhibitory concentration) in tumor cells, MINO
Excerpt: as §1, §2

B lymphoma cells Daudi = experiment: Cell proliferation inhibition (cell viability, CCK-8) in Daudi; type: cell-based; details: Homo sapiens, 72 h treatment, CCK-8 cell viability
Excerpt: as §3, §4, §5

IKZF1/3 [5] = experiment: IKZF protein degradation, western blotting assay in SU-DHL-4; type: cell-based, human; details: SU-DHL-4, western blotting, dose-dependent; FIGS. 4-5
Description: (§6) Most antibodies were purchased from Cell Signaling Technology, including IKZF1 (#9034S), IKZF3(#15103S), CK1α(#ab108296). GAPDH antibody was purchased from Abcam Company. Tumor cells were plated in a 24-well plate at a cell seeding density of 3×10^5 cells/mL, with 1 mL culture media per well. After 24 h, the cells were treated with different concentrations of the compounds of the present disclosure. After 16 hours, the cells were collected, and washed with PBS. The supernatant was discarded, and the cells were placed on ice, and treated with RIPA protein lysate containing Halt protease and phosphatase inhibitor. The lysate was centrifuged at 10000 RPM at 4° C. for 10 minutes, and the supernatant was collected. An equal amount of proteins were loaded in 4×SDS sample solution, denatured at 95° C. for 5 minutes, and then freezed to -20° C. or directly subjected to protein electrophoresis (4-15% gradient gel, Bio-rad). […] DC50 value (the drug concentration required for degrading proteins by 50%, abbreviated as DC50) reads method: comparing the gray values of the Western blotting bands for the drug treatment with the gray values of the Western blotting band for the DMSO control, and reading the drug concentration range corresponding to the gray value of the Western blotting bands for the drug treatment which is equal to half of the gray value of the Western blotting band for the DMSO control. […]

[6] = tested on: human mantle cell lymphoma cell line JEKO-1; experiment: Cell proliferation inhibition (CCK-8) in JEKO-1; type: cell-based; details: JEKO-1 cells, 72 h treatment, FIG. 3
Excerpt: as §1, §2

IKZF1/3 [7] = experiment: IKZF protein degradation, western blotting assay in WSU-DLCL2; type: cell-based, human; details: dose-dependent, FIGS. 4-5
Description: as §6

[8] = tested on: human diffuse large B-cell lymphoma cell line TMD8; experiment: Cell proliferation inhibition (CCK-8) in TMD8; type: cell-based; details: TMD8 cells, 72 h treatment, read-out: IC50 (half inhibitory concentration) in tumor cells, TMD8
Excerpt: as §1, §2

[9] = tested on: human B-cell lymphoma cell line DOHH2; experiment: Cell proliferation inhibition (CCK-8) in DOHH2; type: cell-based; details: DOHH-2, DOHH2 cells, 72 h treatment, read-out: IC50 (half inhibitory concentration) in tumor cells, DOHH2
Excerpt: as §1, §2

IC50 [1]: 164 nM
IC50 [3]: 2.62 ± 0.49 nM
IC50 [4]: 5.05 nM
IC50 (B lymphoma cells Daudi): 12.9 ± 3.87 nM
IC50 [8]: 103 nM
IC50 [9]: 307 nM
Compound: Cc1nc2cccc(NCc3ccc(CN4CCCCCC4)cc3F)c2c(=O)n1C1CCC(=O)NC1=O (stereo not shown) [SIAIS355035, 3-(5-((4-(azepan-1-ylmethyl)-2-fluorobenzyl)amino)-2-methyl-4-oxoquinazolin-3(4H)-yl)piperidine-2,6-dione]
inhibition of SU-DHL-4 cell line (in words) [2]: significantly stronger inhibitory effects as compared with CC-122 and lenalidomide
IKZF1/3 degradation (in words) (IKZF1/3 [5]): can significantly degrade IKZF1/3 at effective concentration significantly lower than that of CC-122
inhibition of JEKO-1 cell line (in words) [6]: significantly stronger inhibitory effects as compared with CC-122 and lenalidomide
IKZF1/3 degradation (in words) (IKZF1/3 [7]): can significantly degrade IKZF1/3 at effective concentration significantly lower than that of CC-122
